Values after ≈ are worked out from the molar mass of the structure shown. Like-named read-outs stand apart in the source and are kept apart here.
Tests used:
[1] = system: Leishmania; test: Mevalonate as nutritional supplement of in vitro cultures; format: cell-based; details: mevalonate-fed cultures
Protocol: To investigate this, we used ^14C-mevalonic acid to determine rate of incorporation by Leishmania (1.0 ng/hr/108 parasites at 25° C, using the respirometric assay. We also looked at mevalonic acid catabolism and found mevalonate is sparingly metabolized to CO2 (less than 1/25 the rate of aspartic acid metabolism, a most rapidly catabolized amino acid, Jackson, et al., 1989, Am J Trop Med Hyg 41, 318-330) even when the promastigotes are maintained under starvation condition for 30 minutes. When mevalonate was added as a nutritional supplement the parasites grew profusely but less rapidly than parallel unsupplemented control cultures. […] Given these preliminary observations: it appears Leishmania (a) incorporate mevalonic acid readily from their environment; (b) catabolism is spared even under starvation conditions; and (c) mevalonic acid can act as a nutritional supplement in vitro.

[2] = system: Trichomonas vaginalis CDC-085 (ATCC#50143); test: Trichomonad MIC assay, 96-well, 48 h; format: cell-based
Protocol: (§1) Trichomonad In Vitro and in Vivo Drug Screening Methods.(a) In Vitro: Several strains of T. vaginalis are maintained, covering the spectrum of metronidazole resistance: CDC85 (highly resistant); RU384, RU383, IR78 (moderately resistant); NYH286, RU284, RU393, C1-NIH (sensitive). These strains are routinely cultivated in a non-defined medium incorporating tryptose, yeast extract, maltose and supplemented with 10% horse serum.
(§2) In in vitro drug studies, plant extracts are tested using a 96-well plate assay as described by Meingassner et al., (1978, Antimicrob Agents Chemother 13, 1-3). This method uses only 200 ul of medium/well and thus uses very little plant extract. Results (in triplicate) are presented as “Minimal Inhibitory Concentration” (MIC) the lowest concentration completely blocking growth (Meingassner et al., 1978, supra). This method is also useful in comparing susceptibility of various strains (Meingassner et al., 1978, supra; Yarlett et al., 1987, Mol Biochem Parasitol 24, 255-261). […] Since vaginal O2 tensions are 1/20th to ¼th of atmospheric (Wagner et al., 1978, Fertil Steril 30, 50-53), it is more physiological to do drug sensitivity testing under conditions approaching this.
(§3) The trichomonad screen consists of two human pathogenic Trichomonas vaginalis strains and a livestock parasite Tritrichomonas foetus. The T. vaginalis isolates include a metronidazole sensitive isolate (C1-NIH: ATCC 30001) and a strain highly resistant to metronidazole (CDC-085: ATCC 50143). […] Table 4 details data from the initial group of 19 primary extracts. […] The results to Dec. 31, 1997 appear in Table 5.

[3] = system: Tritrichomonas foetus KV-1; test: Trichomonad MIC assay, 96-well, 48 h; format: cell-based
Protocol: as §1, §2, §3

[4] = system: Trichomonas vaginalis strain C1-NIH (ATCC #30001); test: Trichomonad MIC assay, 96-well, 48 h; format: cell-based
Protocol: as §1, §2, §3

[5] = system: Leishmania major promastigotes; details: cited from earlier work
[6] = cited from earlier work
[7] = 60 mg/day for 3 months; cited from earlier work
[8] = system: J-774 A.1 macrophages; details: 10 uM; not from mevalonate; cited from earlier work
[9] = in vivo; cited from earlier work
[10] = rats; cited from earlier work

## C[C@@](O)(CCO)CC(=O)O [mevalonic acid]
[1]
  logarithmic phase growth longer than unsupplemented cultures: 2 fold
[1]; unsupplemented ended at 4-5 days
  duration of logarithmic phase growth: > 10 days

## Cc1ncc([N+](=O)[O-])n1CCO [Metronidazole]
[2]; ATCC50143, Table 4, 48 hrs, metronidazole-resistant strain, read-out: MIC CDC-085 48 hrs
  MIC: 400 µg/mL (≈ 2340 µM)
[2]; ATCC50143, Table 5, new plant extracts, read-out: MIC CDC-085
  MIC: 400 µg/mL (≈ 2340 µM)
[3]; Table 4, 48 hrs, read-out: MIC KV-1 48 hrs
  MIC: 4 µg/mL (≈ 23.4 µM)
[3]; Table 5, new plant extracts, read-out: MIC KV1
  MIC: 3 µg/mL (≈ 17.5 µM)
[4]; ATCC30001, Table 4, 48 hrs, read-out: MIC C1-HIH 48 hrs
  MIC: 3 µg/mL (≈ 17.5 µM)
[4]; ATCC30001, Table 5, new plant extracts, read-out: MIC C1-NIH
  MIC: 3 µg/mL (≈ 17.5 µM)

## Nc1ccc(S(=O)(=O)c2ccc(N)cc2)cc1 [Dapsone, 4,4′-diaminodiphenyl sulfone]
[5]
  reversibility of inhibition by p-aminobenzoate (PABA) folate or thymidine: not reversible

## CC(=O)N1CCN(c2ccc(OCC3COC(Cn4ccnc4)(c4ccc(Cl)cc4Cl)O3)cc2)CC1 (stereo not drawn) [ketoconazole]
[6]; 200 mg/day
  decreased plasma cholesterol from pretreatment baseline: 15%
[6]; 1200 mg/day
  decreased plasma cholesterol from pretreatment baseline: 27%

## CC(C)=CCC/C(C)=C/C=C/C(C)=C/C=C/C(C)=C/C=C/C=C(C)/C=C/C=C(C)/C=C/C=C(\C)CCC=C(C)C [lycopene]
[7]
  decrease in plasma LDL cholesterol: 14%
[8]
  cholesterol synthesis inhibited from acetate: 73%

## Nc1nc(N)nc(Nc2ccc([As]3SCC(CO)S3)cc2)n1 (stereo not drawn) [Melarsoprol]
[9]
  incidence of cerebral episodes: 3-5%

## CC/C(=C(/c1ccc(OCCN(C)C)cc1)c1cccc(O)c1)c1ccccc1 [Droloxifene]
[10]
  reduced total serum cholesterol compared to controls: 65-70%

Reference: patent US6403576B1, “Antifungal and antiparasitic compounds” (priority 1998, dated 2002)
